The values that follow come from patent US20070004763A1, “AMINOQUINOLINE AND AMINOQUINAZOLINE KINASE MODULATORS” (priority 2005, published 2007).

For the assay, the target named is T1, TrkB (Homo sapiens, UniProt Q16620).
T1 construct: purchased Upstate 14-507M
The assay is described as follows: Trk B Fluorescence Polarization Kinase Assay. It is filed as biochemical. The following applies: 150 uM ATP, 50 nM TrkB; uncertainty ±10%. On the procedure: The compounds of the present invention are also specific inhibitors of TrkB. Selection of preferred compounds of Formula I for use as TrkB inhibitors was performed in the following manner. The TrkB assay utilized the fluorescein-labeled phosphopeptide and the anti-phosphotyrosine antibody included in the Panvera Phospho-Tyrosine Kinase Kit (Green) supplied by Invitrogen. When TrkB phosphorylated poly Glu4Tyr, the fluorescein-labeled phosphopeptide was displaced from the anti-phosphotyrosine antibody by the phosphorylated poly Glu4Tyr, thus decreasing the FP value. The TrkB kinase reaction was incubated at room temperature for 30 minutes under the following conditions: 50 nM TrkB (Upstate, catalog #14-507M), 20 ug/mL poly Glu4Tyr, 150 uM ATP, 5 mM MgCl2, 1% compound in DMSO. The kinase reaction was stopped with the addition of EDTA. The fluorescein-labeled phosphopeptide and the anti-phosphotyrosine antibody were added and incubated for 30 minutes at room temperature. Data points were an average of triplicate samples. Inhibition and IC50 data analysis were done with GraphPad Prism using a non-linear regression fit with a multiparamater, sigmoidal dose-response (variable slope) equation.
(Fluorescence polarisation rises when a labelled molecule tumbles more slowly, as on binding a larger partner.)

Bounds are passed on as bounds.

T1 sequence (Q16620 526-822 limits assumed): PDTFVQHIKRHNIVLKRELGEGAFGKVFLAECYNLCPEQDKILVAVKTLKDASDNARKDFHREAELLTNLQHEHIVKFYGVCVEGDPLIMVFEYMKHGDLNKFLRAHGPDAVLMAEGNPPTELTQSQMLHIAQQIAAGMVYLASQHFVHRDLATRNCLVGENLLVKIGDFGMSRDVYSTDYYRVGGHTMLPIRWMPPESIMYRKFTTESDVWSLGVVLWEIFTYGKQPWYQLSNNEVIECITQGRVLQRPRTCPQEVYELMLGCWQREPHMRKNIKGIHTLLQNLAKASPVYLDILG

Usually IC50 stands for the point on the concentration scale where inhibition reaches its midpoint. Higher therefore signals weaker potency in that assay. As to `COc1cc2ncnc(N3CCC(OC(=O)Nc4ccc(C(C)C)cc4)CC3)c2cc1OC` [Compound 1, (4-Isopropyl-phenyl)-carbamic acid 1-(6,7-dimethoxy-quinazolin-4-yl)-piperidin-4-yl ester], the concentration for half-maximal inhibition (IC50) was 5.72 µM.
The compound `COc1cc2ncnc(N3CCC(OC(=O)Nc4ccc(C(C)C)cc4)C3)c2cc1OC` (centres unmarked) [Compound 2, (4-Isopropyl-phenyl)-carbamic acid 1-(6,7-dimethoxy-quinazolin-4-yl)-pyrrolidin-3-yl ester] yielded a half-maximal inhibitory concentration (IC50) of 3.7 µM. Against the preceding compound, the IC50 is about 1.5-fold lower.
`COc1cc2ncnc(N3CCC(OC(=O)Nc4ccc(OC(C)C)cc4)CC3)c2cc1OC` [Compound 3, (4-Isopropoxy-phenyl)-carbamic acid 1-(6,7-dimethoxy-quinazolin-4-yl)-piperidin-4-yl ester] returned an IC50 of 5.8 µM. This IC50 is about 1.6-fold higher than that of the compound before.
The figure for `COc1cc2ncnc(N3CCCC(COC(=O)Nc4ccc(C(C)C)cc4)C3)c2cc1OC` (centres unmarked) [Compound 4] is 8.4 µM.
The figure for `COc1cc2ncnc(N3CCC(CC(=O)Nc4ccc(C(C)C)cc4)CC3)c2cc1OC` [Compound 5, 2-[1-(6,7-Dimethoxy-quinazolin-4-yl)-piperidin-4-yl]-N-(4-isopropyl-phenyl)-acetamide] is 2.4 µM; for `COc1cc2ncnc(N3CCC(CC(=O)Nc4ccc(C(C)C)cc4)C3)c2cc1OC` (centres unmarked) [Compound 6, 2-[11-(6,7-Dimethoxy-quinazolin-4-yl)-pyrrolidin-3-yl]-N-(4-isopropyl-phenyl)-acetamide] it is 0.1 µM; for `COc1cc2ncnc(N3CCC(NC(=O)Nc4ccc(OC(C)C)cc4)C3)c2cc1OC` (centres unmarked) [Compound 8, 1-[1-(6,7-Dimethoxy-quinazolin-4-yl)-pyrrolidin-3-yl]-3-(4-isopropoxy-phenyl)-urea] it is 3.65 µM.
The figure for `COc1cc2ncnc(N3CCCC3COC(=O)Nc3ccc(C(C)C)cc3)c2cc1OC` (centres unmarked) [Compound 9] is 0.2 µM; for `CC(C)c1ccc(NC(=O)OC2CCN(c3ccnc4ccccc34)CC2)cc1` [Compound 10] it is 6.5 µM; for `COc1cc2ncnc(N3CCC(OC(=O)Nc4ccc(OC5CCC5)nc4)CC3)c2cc1OC` [Compound 11, (6-Cyclobutoxy-pyridin-3-yl)-carbamic acid 1-(6,7-dimethoxy-quinazolin-4-yl)-piperidin-4-yl ester] it is 8.6 µM.
As to `COc1cc2ncnc(N3CCC(OC(=O)Nc4ccc(OC5CCC5)nc4)C3)c2cc1OC` (centres unmarked) [Compound 12, (6-Cyclobutoxy-pyridin-3-yl)-carbamic acid 1-(6,7-dimethoxy-quinazolin-4-yl)-pyrrolidin-3-yl ester], the midpoint of inhibition, the IC50, lay at 21.7 µM.
Compound `COc1cc2ncnc(N3CCC(C(=O)Nc4ccc(C(C)C)cc4)CC3)c2cc1OC` [Compound 13, 1-(6,7-Dimethoxy-quinazolin-4-yl)-piperidine-4-carboxylic acid (4-isopropyl-phenyl)-amide] displayed an IC50 of 0.16 µM.
Consider `CC(C)c1ccc(NC(=O)OC2CCN(c3ncnc4ccc(C#CCO)cc34)C2)cc1` (centres unmarked) [Compound 14, (4-Isopropyl-phenyl)-carbamic acid 1-[6-(3-hydroxy-prop-1-ynyl)-quinazolin-4-yl]-pyrrolidin-3-yl ester], for which the IC50 is 0.4 µM.
`COc1cc2ncnc(N3CCC(OC(=O)Nc4ccc(OC(C)C)cc4)C3)c2cc1OC` (centres unmarked) [Compound 15, (4-Isopropoxy-phenyl)-carbamic acid 1-(6,7-dimethoxy-quinazolin-4-yl)-pyrrolidin-3-yl ester] returned an IC50 of 12.5 µM.
As for `CC(C)c1ccc(NC(=O)NC2CCN(c3ncnc4ccccc34)C2)cc1` (centres unmarked) [Compound 16, 1-(4-Isopropyl-phenyl)-3-(1-quinazolin-4-yl-pyrrolidin-3-yl) urea], the concentration for half-maximal inhibition (IC50) came to 2.4 µM.
With `CCN(CC)CC#Cc1ccc2ncnc(N3CCC(OC(=O)Nc4ccc(C(C)C)cc4)C3)c2c1` (centres unmarked) [Compound 17, (4-Isopropyl-phenyl)-3-carbamic acid 1-[6-(3-diethylamino-prop-1-ynyl)-quinazolin-4-yl]-pyrrolidin-3-yl ester], the IC50 amounted to 3.6 µM.
Take `COc1cc2ncnc(N3CCC(CNC(=O)Nc4ccc(C(C)C)cc4)CC3)c2cc1OC` [Compound 18, 1-[1-(6,7-Dimethoxy-quinazolin-4-yl)-piperidin-4-ylmethyl]-3-(4-isopropyl-phenyl)-urea]: the IC50 was determined as 0.5 µM. This IC50 is about 7.2-fold lower than that of the compound before.
In turn, `CC(C)c1ccc(NC(=O)OC2CCN(c3ncnc4ccc(I)cc34)C2)cc1` (centres unmarked) [Compound 20, (4-Isopropyl-phenyl)-carbamic acid 1-(6-iodo-quinazolin-4-yl)-pyrrolidin-3-yl ester] yielded an IC50 of 13.1 µM.
The compound `COc1cc2ncnc(N3CCC(NC(=O)Cc4ccc(C(C)C)cc4)CC3)c2cc1OC` [Compound 21, N-[1-(6,7-Dimethoxy-quinazolin-4-yl)-piperidin-4-yl]-2-(4-isopropyl-phenyl)-acetamide] registered an IC50 of 11.2 µM.
The figure for `COc1cc2ncnc(N3CCC(COC(=O)Nc4ccc(C(C)C)cc4)CC3)c2cc1OC` [Compound 22, (4-Isopropyl-phenyl)-carbamic acid 1-(6,7-dimethoxy-quinazolin-4-yl)-piperidin-4-ylmethyl ester] is 0.8 µM; for `COc1cc2ncnc(N3CCC(C(=O)Nc4ccc(OC(C)C)cc4)CC3)c2cc1OC` [Compound 23, 1-(6,7-Dimethoxy-quinazolin-4-yl)-piperidine-4-carboxylic acid (4-isopropoxy-phenyl)-amide] it is 0.55 µM; for `CC(C)c1ccc(NC(=O)OC2CCN(c3ncnc4ccccc34)C2)cc1` (centres unmarked) [Compound 24, (4-Isopropyl-phenyl)-carbamic acid 1-quinazolin-4-yl-pyrrolidin-3-yl ester] it is 5.5 µM.
Consider `COc1cc2ncc(C#N)c(N3CCC(NC(=O)Nc4ccc(C(C)C)cc4)C3)c2cc1OC` (centres unmarked) [Compound 26, 1-[1-(3-Cyano-6,7-dimethoxy-quinolin-4-yl)-pyrrolidin-3-yl]-3-(4-isopropyl-phenyl)-urea], for which the IC50 worked out at 10.9 µM.
In turn, `CC(C)c1ccc(NC(=O)NC2CCN(c3ccnc4ccccc34)C2)cc1` (centres unmarked) [Compound 27, (4-Isopropyl-phenyl)-3-(1-quinolin-4-yl)-pyrrolidin-3-yl-urea] yielded an IC50 of 7.7 µM. The IC50 values of the last two compounds are within 1.5-fold of each other.
Take `COc1cc2ncnc(N3CCCC(NC(=O)Nc4ccc(C(C)C)cc4)C3)c2cc1OC` (centres unmarked) [Compound 28, 1-[1-(6,7-Dimethoxy-quinazolin-4-yl)-piperidin-3-yl]-3-(4-isopropyl-phenyl)-urea]: the half-maximal inhibitory concentration (IC50) stood at 0.3 µM.
For `COc1cc2ncc(C#N)c(N3CCC(NC(=O)Nc4ccc(OC(C)C)cc4)C3)c2cc1OC` (centres unmarked) [Compound 29, 1-[1-(3-Cyano-6,7-dimethoxy-quinolin-4-yl)-pyrrolidin-3-yl]-3-(4-isopropoxy-phenyl)-urea], half-maximal inhibition (IC50) required 10.3 µM.
In turn, `COc1cc2ncnc(N3CCCC(OC(=O)Nc4ccc(C(C)C)cc4)C3)c2cc1OC` (centres unmarked) [Compound 31, (4-Isopropyl-phenyl)-carbamic acid 1-[1-(6,7-dimethoxy-quinazolin-4-yl)-piperidin-3-yl]ester] yielded a 50% inhibitory concentration (IC50) of 0.2 µM.
Consider `COc1cc2ncc(C#N)c(N3CCC(OC(=O)Nc4ccc(OC(C)C)cc4)C3)c2cc1OC` (centres unmarked) [Compound 32, (4-Isopropoxy-phenyl)-carbamic acid 1-(3-cyano-6,7-dimethoxy-quinolin-4-yl)-pyrrolidin-3-yl ester], for which 5.3 µM corresponded to half-maximal inhibition (IC50).
For the compound `COc1cc2ncnc(N3CCCCC3COC(=O)Nc3ccc(C(C)C)cc3)c2cc1OC` (centres unmarked) [Compound 33, (4-Isopropyl-phenyl)-carbamic acid 1-(6,7-dimethoxy-quinazolin-4-yl)-piperidin-2-ylmethyl ester], the IC50 stood at 5 µM.
Next, `CC(C)c1ccc(NC(=O)OC2CCN(c3ccnc4ccccc34)C2)cc1` (centres unmarked) [Compound 34]: 7.6 µM.
`COc1cc2ncnc(N3CCC(NC(=O)Cc4ccc(C(C)C)cc4)C3)c2cc1OC` (centres unmarked) [Compound 35, N-[1-(6,7-Dimethoxy-quinazolin-4-yl)-pyrrolidin-3-yl]-2-(4-isopropyl-phenyl)-acetamide]: the midpoint of inhibition, the IC50, lay at 6.5 µM.
As to `COc1cc2ncc(C#N)c(N3CCC(OC(=O)Nc4ccc(C(C)C)cc4)C3)c2cc1OC` (centres unmarked) [Compound 37, (4-Isopropyl-phenyl)-carbamic acid 1-(3-cyano-6,7-dimethoxy-quinolin-4-yl)-pyrrolidin-3-yl ester], the half-inhibitory concentration (IC50) is 8.48 µM.
`CC(C)Oc1ccc(NC(=O)NC2CCN(c3ccnc4ccccc34)C2)cc1` (centres unmarked) [Compound 38, (4-Isopropoxy-phenyl)-3-(1-quinolin-4-yl)-pyrrolidin-3-yl-urea] came in with a half-maximal inhibitory concentration (IC50) of 26.8 µM.
Next, `CC(C)Oc1ccc(NC(=O)OC2CCN(c3ccnc4ccccc34)C2)cc1` (centres unmarked) [Compound 39]: 9.1 µM; `COc1cc2ncc(C#N)c(N3CCC(OC(=O)Nc4ccc(OC(C)C)cc4)CC3)c2cc1OC` [Compound 40, (4-Isopropoxy-phenyl)-carbamic acid 1-(3-cyano-6,7-dimethoxy-quinolin-4-yl)-piperidin-4-yl ester]: 11.8 µM.
Compound `CC(C)Oc1ccc(NC(=O)OC2CCN(c3ccnc4ccccc34)CC2)cc1` [Compound 41] showed an IC50 of 14 µM.
`COc1cc2ncc(C#N)c(N3CCC(OC(=O)Nc4ccc(C(C)C)cc4)CC3)c2cc1OC` [Compound 42, (4-Isopropyl-phenyl)-carbamic acid 1-(3-cyano-6,7-dimethoxy-quinolin-4-yl)-piperidin-4-yl ester]: the half-inhibitory concentration (IC50) is greater than 42 µM.
The figure for `COc1cc2ncnc(N3CCC(NC(=O)Nc4ccc(N5CCOCC5)cc4)C3)c2cc1OC` (centres unmarked) [Compound 43, 1-[1-(6,7-Dimethoxy-quinazolin-4-yl)-pyrrolidin-3-yl]-3-(4-morpholin-4-yl-phenyl)-urea] is 40.6 µM.
